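Results reflect a 48-hour exposure of cells in 96-well plates to compound at five concentrations. TGI denotes the concentration required for complete inhibition of growth.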
Experiments:
Assay in all cases: growth of human tumour cells (NCI), 48 h
SW-620 colon = test system: SW-620 colon
UACC-62 melanoma = test system: UACC-62 melanoma
SK-MEL-2 melanoma = test system: SK-MEL-2 melanoma
PC-3 prostate = test system: PC-3 prostate
CCRF-CEM leukemia = test system: CCRF-CEM leukemia
IGROV1 ovarian = test system: IGROV1 ovarian
ACHN renal = test system: ACHN renal
DU-145 prostate = test system: DU-145 prostate
NCI-H460 lung = test system: NCI-H460 lung
NCI/ADR-RES ovarian = test system: NCI/ADR-RES ovarian
SNB-19 CNS = test system: SNB-19 CNS
HCT-116 colon = test system: HCT-116 colon
K-562 leukemia = test system: K-562 leukemia
UACC-257 melanoma = test system: UACC-257 melanoma
786-0 renal = test system: 786-0 renal
SK-MEL-28 melanoma = test system: SK-MEL-28 melanoma
U251 CNS = test system: U251 CNS
MDA-N = test system: MDA-N
COLO 205 colon = test system: COLO 205 colon
HCT-15 colon = test system: HCT-15 colon
KM12 colon = test system: KM12 colon
MDA-MB-435 = test system: MDA-MB-435
SN12C renal = test system: SN12C renal
MDA-MB-231 breast = test system: MDA-MB-231 breast
CAKI-1 renal = test system: CAKI-1 renal
LOX IMVI melanoma = test system: LOX IMVI melanoma
OVCAR-3 ovarian = test system: OVCAR-3 ovarian
HT29 colon = test system: HT29 colon
A549 NSCLC = test system: A549 NSCLC
RXF 393 renal = test system: RXF 393 renal
TK-10 renal = test system: TK-10 renal
A498 renal = test system: A498 renal
OVCAR-5 ovarian = test system: OVCAR-5 ovarian
NCI-H226 lung = test system: NCI-H226 lung
M14 melanoma = test system: M14 melanoma
HS 578T breast = test system: HS 578T breast
RPMI-8226 leukemia = test system: RPMI-8226 leukemia
SK-OV-3 ovarian = test system: SK-OV-3 ovarian
HOP-92 NSCLC = test system: HOP-92 NSCLC
SF-539 CNS = test system: SF-539 CNS
OVCAR-4 ovarian = test system: OVCAR-4 ovarian
NCI-H23 lung = test system: NCI-H23 lung
MCF7 breast = test system: MCF7 breast
SK-MEL-5 melanoma = test system: SK-MEL-5 melanoma
SR leukemia = test system: SR leukemia
SNB-75 CNS = test system: SNB-75 CNS
HCC-2998 colon = test system: HCC-2998 colon
HOP-62 NSCLC = test system: HOP-62 NSCLC
BT-549 breast = test system: BT-549 breast
SF-295 CNS = test system: SF-295 CNS
UO-31 renal = test system: UO-31 renal
NCI-H522 lung = test system: NCI-H522 lung
SF-268 CNS = test system: SF-268 CNS
MOLT-4 leukemia = test system: MOLT-4 leukemia
MALME-3M melanoma = test system: MALME-3M melanoma
EKVX NSCLC = test system: EKVX NSCLC
T-47D breast = test system: T-47D breast
OVCAR-8 ovarian = test system: OVCAR-8 ovarian
HL-60(TB) leukemia = test system: HL-60(TB) leukemia

Measured: TGI

CN(N=O)c1nc2c(C(N)=O)ncn2s1
> 100 µM: SW-620 colon | UACC-62 melanoma | SK-MEL-2 melanoma | PC-3 prostate | CCRF-CEM leukemia | IGROV1 ovarian | ACHN renal | DU-145 prostate | NCI-H460 lung | NCI/ADR-RES ovarian | SNB-19 CNS | HCT-116 colon | K-562 leukemia | UACC-257 melanoma | 786-0 renal | SK-MEL-28 melanoma | U251 CNS | MDA-N | COLO 205 colon | HCT-15 colon | KM12 colon | MDA-MB-435 | SN12C renal | MDA-MB-231 breast | CAKI-1 renal | LOX IMVI melanoma | OVCAR-3 ovarian | HT29 colon | A549 NSCLC | RXF 393 renal | TK-10 renal | A498 renal | OVCAR-5 ovarian | NCI-H226 lung | M14 melanoma | HS 578T breast | RPMI-8226 leukemia | SK-OV-3 ovarian | HOP-92 NSCLC | SF-539 CNS | OVCAR-4 ovarian | NCI-H23 lung | MCF7 breast | SK-MEL-5 melanoma | SR leukemia | SNB-75 CNS | HCC-2998 colon | HOP-62 NSCLC | BT-549 breast | SF-295 CNS | UO-31 renal | NCI-H522 lung | SF-268 CNS | MOLT-4 leukemia | MALME-3M melanoma | EKVX NSCLC | T-47D breast | OVCAR-8 ovarian

COc1cc(N(C)C)c(OC)cc1C=C1C=CC=C1
> 100 µM: SW-620 colon | UACC-62 melanoma | SK-MEL-2 melanoma | PC-3 prostate | CCRF-CEM leukemia | IGROV1 ovarian | ACHN renal | DU-145 prostate | NCI-H460 lung | NCI/ADR-RES ovarian | SNB-19 CNS | HCT-116 colon | K-562 leukemia | 786-0 renal | SK-MEL-28 melanoma | U251 CNS | MDA-N | KM12 colon | MDA-MB-435 | SN12C renal | MDA-MB-231 breast | OVCAR-3 ovarian | HT29 colon | A549 NSCLC | RXF 393 renal | TK-10 renal | A498 renal | OVCAR-5 ovarian | NCI-H226 lung | M14 melanoma | HS 578T breast | HL-60(TB) leukemia | SK-OV-3 ovarian | HOP-92 NSCLC | SF-539 CNS | NCI-H23 lung | MCF7 breast | SK-MEL-5 melanoma | SR leukemia | HCC-2998 colon | HOP-62 NSCLC | BT-549 breast | SF-295 CNS | UO-31 renal | SF-268 CNS | MOLT-4 leukemia | MALME-3M melanoma | EKVX NSCLC | T-47D breast | OVCAR-8 ovarian

Source: PubChem BioAssay (NCI)
